The record followed here is patent US20240327423A1, “A SERIES OF PYRROLE DERIVATIVES AND THEIR PREPARATION METHOD AND THERAPEUTIC USE” (SHENZHEN SUNGENING BIO-MEDICAL CO., LTD, priority 2020, published 2024).

Series [1] has as its system Aspergillus fumigatus (ATCC MYA-4609/AF293/CBS 101355). The series can be described thus: Measurement of minimum inhibitory concentration (MIC), AF293. Type of series: cell-based. Here is the method:
New streaks are made with glycerol stock solution of the strains of Aspergillus fumigatus (ATCC MYA-4609/AF 293/CBS 101355) on Sabouraud's dextrose agar (SDA), incubate at 35° C. and a humidity of 40-70% for 72 hours. Other strains are processed as the same as AF293.
RPMI1640: one packet of RPMI1640 powder is dissolved in 1 L purified water and mixed well, add 0.165M MOPS, adjust the pH to 7.0, sterilize by filtration with 0.22 um membrane, and store at 4° C. for no more than 3 months.
Physiological saline: weigh 9 g of sodium chloride powder and dissolve in 1 L of purified water, and mixed well. Sterilize at 121° C. for 30 min, store at room temperature (RT) for no more than 1 week.
Dissolve the test compound and stock solution of one control compound with DMSO and obtain solutions at a concentration of 12.8 mg/mL
The maximum concentration of each compound is 0.8 mg/mL (e.g., 150 μL of dimethyl sulfoxide+10 uL of 12.8 mg/mL compound/control). Column 1 is filled with 40 μL of compound and columns 2 to 11 with 20 μL of dimethyl sulfoxide. Transfer 20 μL of compound from column 1 to column 2 to dilute the concentration. Repeat the above steps up to column 11 to give 2× serial dilutions.
2 μL of the above 2× serial dilutions are injected into each hole of the corresponding test plate using a multichannel pipette.
Drop 5 ml of saline on the Aspergillus fumigatus SDA plate. The spores were carefully wiped off from the surface of the plate with an L-shaped coating rod. Then the suspension is transferred into a sterile tube. After shaking, let the tube stand for 5 to 10 minutes. Count the number of spores in the upper suspension with a hemocytometer and check the purity. Adjust the inoculum concentration to 0.2-2.5×10^4 spores/mL.
Inject 198 μL of diluted inoculum into each holes of the corresponding test plate using a multichannel pipette.
Incubate at 35° C. for 48 hours.
To facilitate scoring of the presence or absence of growth on the wall, a magnifying glass is used. The tested 96-well microplates were photographed and the optical density at 530 nm is read with an enzyme marker (Tecan Spark).

A short description of series [2]: Liver microsomal stability test, mouse. Type of series: in vitro ADME. The following applies: Mouse liver microsomes. Here is the method: (§1) • 1: Add 10 μL of working solutions of test product or reference product and 80 μL of microsomal working solution (liver microsomal protein concentration of 0.5 mg/mL) to wells of TO, T5, T10, T20, T30, T60, and NCF60, and only microsomal working solution is added to the Blank60 wells. Then the samples of Blank60, T10, T20, T30 and T60, except for TO and NCF60, are placed in a water bath set at 37° C. and incubate for approximately 10 mins; • 2: Add 300 μL of termination solution (acetonitrile solution containing 200 ng/mL tolbutamide and 200 ng/mL labetalol) to Sample TO, followed by 10 ul of NADPH regeneration system working solution; • 3: After incubation of Blank60, T5, T10, T20, T30 and T60 on incubation plates, add 10 μL of NADPH regeneration system working solution to each sample well to start the reaction, and 10 uL of 100 mM potassium phosphate buffer is add to the NCF60 sample wells; • 4: After incubation for appropriate times (e.g., 5, 10, 20, 30 and 60 mins), 300 μL of termination solution is add to each sample well of test product and reference product on Blank60, T5, T10, T20, T30, T60 and NCF60 plates, respectively, to terminate the reaction. • 5: All sample plates are shaken well and centrifuged at 4000 rpm for 20 min, take 100 μL of the supernatant of the test product or reference product, dilute in 300 μL of pure water for LC-MS/MS analysis, respectively. • 6: Data analysis, T½ and CLint(mic) (μL/min/mg) values are calculated based on the first-order elimination kinetics, and the equations of first-order elimination kinetics are: […]
Background: Microsomes from liver hold many membrane-bound enzymes, among them those of drug oxidation.

A short description of series [3]: Liver microsomal stability test, human. Type of series: in vitro ADME. The following applies: Human liver microsomes. The method, then: as §1
[4] abbreviates: CBS101355, Aspergillus fumigatus AF293, 35° C., 48 hours, RPMI1640, read-out: AF293: MIC.
Where [5] appears, read: 0.5 mg/mL protein, 37° C., NADPH.
[6] abbreviates: Aspergillus fumigatus AF293, 35° C., 48 hours, RPMI1640.

Values after ≈ are worked out from the molar mass of the structure shown. Read-outs that look alike come from different tables or passages of the source.

`Cc1cc(-c2ccccc2)c(C(=O)C(=O)Nc2ccc3c(c2)OCC2CN(c4ccc(F)cn4)CCN32)n1C` (stereo not shown) [Example 14]: the minimum inhibitory concentration (MIC) in series [1] (setting [4]) worked out at 0.06 µg/mL (≈ 0.114 µM).

On to `Cc1cc(-c2ccccc2)c(C(=O)C(=O)Nc2cnc3c(c2)OCC2CN(c4ncc(F)cn4)CCN32)n1C` (stereo not shown) [Example 22, 2-(1,5-dimethyl-3-phenyl-1H-pyrrol-2-yl)-N-(8-(5-fluoropyrimidin-2-yl)-6,6a,7,8,9,10-hexahydropyrazino[1,2-d]pyrido[3,2-b] [1,4]oxazin-3-yl)-2-oxoacetamide], for which, in series [1] (setting [4]), the MIC came out at 0.13 µg/mL (≈ 0.246 µM). `Cc1cc(-c2ccccc2)c(C(=O)C(=O)Nc2ccc3c(c2)OCC2CN(c4ncc(C(F)(F)F)cn4)CCN32)n1C` (stereo not shown) [Example 9]: the minimum inhibitory concentration (MIC) in series [1] (setting [4]) was 0.06 µg/mL (≈ 0.104 µM). Besides, the CLint scaled came to 81.1 mL/min/kg in series [2] (setting [5]) and 52.9 mL/min/kg in series [3] (setting [5]). Besides, the half-life was found to be 30.7 min in series [2] (setting [5]) and 23.6 min in series [3] (setting [5]). The “Remaining, (T = 60 min)” value in series [2] (60 min) came out at 24.0%; in series [3] (60 min), 16.5%. With `Cc1cc(-c2ccccc2)c(C(=O)C(=O)Nc2ccc3c(c2)CC2CN(c4ncc(F)cn4)CCCN32)n1C` (stereo not shown) [2 (T-2-a), 2-(1,5-dimethyl-3-phenyl-1H-pyrrol-2-yl)-N-(2-(5-fluoropyrimidin-2-yl)-2,3,4,5,11,11a-hexahydro-1H-[1,4]diaza[1,2-a]indol-9-yl)-2-oxoacetamide], the “AF293: MIC” value in series [1] (setting [6]) is 0.06 µg/mL. Still for that read-out and setting: the same measure for `Cc1cc(-c2ccccc2)c(C(=O)C(=O)Nc2ccc3c(c2)OCC2CN(c4ncn(C)n4)CCN32)n1C` (stereo not shown) [Example 17]: 1 µg/mL. `COc1cnc(N2CCN3c4ccc(NC(=O)C(=O)c5c(-c6ccccc6)cc(C)n5C)cc4OCC3C2)nc1` (stereo not shown) [Example 8]: the minimum inhibitory concentration (MIC) in series [1] (setting [4]) was 0.03 µg/mL (≈ 0.0557 µM). Still for that read-out and setting: as for `Cc1cc(-c2ccccc2)c(C(=O)C(=O)Nc2ccc3c(c2)OC[C@H]2CN(c4ncc(N5CCOCC5)cn4)CCN32)n1C` [Example 24, (R)-2-(1,5-dimethyl-3-phenyl-1H-pyrrol-2-yl)-N-(3-(5-morpholinopyrimidin-2-yl)-1,2,3,4,4a,5-hexahydrobenzo[b]pyrazino[1,2-d] [1,4]oxazin-8-yl)-2-oxoacetamide], the figure is 0.13 µg/mL (≈ 0.219 µM). Same read-out and setting: the same measure for `Cc1cc(-c2ccccc2)c(C(=O)C(=O)Nc2ccc3c(c2)COC[C@H]2CN(c4ncc(F)cn4)CCN32)n1C` [Example 26]: 0.03 µg/mL (≈ 0.0555 µM); for `Cc1cc(-c2cccc(F)c2)c(C(=O)C(=O)Nc2ccc3c(c2)OC[C@H]2CN(c4ncc(F)cn4)CCN32)n1C` [Example 36, (R)-2-(3-(3-fluorophenyl)-1,5-dimethyl-1H-pyrrol-2-yl)-N-(3-(5-fluoropyrimidin-2-yl)-1,2,3,4,4a,5-hexahydrobenzo[b]pyrazino[1,2-d] [1,4]oxazin-8-yl)-2-oxoacetamide]: 0.016 µg/mL (≈ 0.0294 µM). As for `Cc1cc(-c2ccccc2)c(C(=O)C(=O)Nc2ccc3c(c2)COCC2CN(c4ncc(F)cn4)CCN32)n1C` (stereo not shown) [Example 18, 2-(1,5-dimethyl-3-phenyl-1H-pyrrol-2-yl)-N-(3-(5-fluoropyrimidin-2-yl)-1,2,3,4,4a,5-hexahydro-7H-benzo[e]pyrazino[2,1-c] [1,4]oxazolin-9-yl)-2-oxoacetamide], in series [1] (setting [6]), the “AF293: MIC” value is 0.03 µg/mL. For the compound `Cc1cc(-c2ccccc2)c(C(=O)C(=O)Nc2ccc3c(c2)OCC2CN(c4nccc(Cl)n4)CCN32)n1C` (stereo not shown) [Example 10], the minimal inhibitory concentration (MIC) in series [1] (setting [4]) was found to be 0.06 µg/mL (≈ 0.11 µM).

On to `Cc1cc(-c2ccccc2)c(C(=O)C(=O)Nc2ccc3c(c2)COC[C@@H]2CN(c4ncc(F)cn4)CCN32)n1C` [Example 27], for which, in series [1] (setting [4]), the MIC was 0.03 µg/mL (≈ 0.0555 µM). On to `Cc1cc(-c2ccccc2)c(C(=O)C(=O)Nc2ccc3c(c2)OCC2CN(c4ncc(C#N)cn4)CCN32)n1C` (stereo not shown) [Example 7, N-(3-(5-cyanopyrimidin-2-yl)-1,2,3,4,4a,5-hexahydrobenzo[b]pyrazino[1,2-d] [1,4]oxazin-8-yl)-2-(1,5-dimethyl-3-phenyl-1H-pyrrol-2-yl)-2-oxyacetamide], for which the “AF293: MIC” value in series [1] (setting [6]) amounted to 0.06 µg/mL. With `Cc1cc(-c2ccccc2)c(C(=O)C(=O)Nc2ccc3c(c2)OCC2CN(c4ccc(F)nn4)CCN32)n1C` (stereo not shown) [Example 13], in series [1] (setting [4]), the MIC stood at 0.25 µg/mL (≈ 0.475 µM). On to `Cc1cc(-c2ccccc2)c(C(=O)C(=O)Nc2ccc3c(c2)CN(C)CC2CN(c4ncc(F)cn4)CCN32)n1C` (stereo not shown) [Example 31], for which, in series [1] (setting [6]), the “AF293: MIC” value amounted to 1 µg/mL.

For the compound `Cc1cc(-c2ccccc2)c(C(=O)C(=O)Nc2ccc3c(c2)CC2CCN(c4ncc(F)cn4)CCN32)n1C` (stereo not shown) [2 (T-2-b), 2-(1,5-dimethyl-3-phenyl-1H-pyrrol-2-yl)-N-(3-(5-fluoropyrimidin-2-yl)-2,3,4,5,11,11a-hexahydro-1H-[1,4]diaza[1,7-a]indol-9-yl)-2-oxoacetamide], the “AF293: MIC” value in series [1] (setting [6]) came to 0.06 µg/mL. For the compound `Cc1cc(-c2ccc(F)cc2)c(C(=O)C(=O)Nc2ccc3c(c2)OC[C@H]2CN(c4ncc(F)cn4)CCN32)n1C` [Example 37, (R)-2-(3-(4-fluorophenyl)-1,5-dimethyl-1H-pyrrol-2-yl)-N-(3-(5-fluoropyrimidin-2-yl)-1,2,3,4,4a,5-hexahydrobenzo[b]pyrazino[1,2-d] [1,4]oxazin-8-yl)-2-oxoacetamide], the MIC in series [1] (setting [4]) was determined as 0.016 µg/mL (≈ 0.0294 µM). Turning to `Cc1cc(-c2ccccc2)c(C(=O)C(=O)Nc2cc(F)c3c(c2)OC[C@H]2CN(c4ncc(F)cn4)CCN32)n1C` [Example 25, (R)-2-(1,5-dimethyl-3-phenyl-1H-pyrrol-2-yl)-N-(10-fluoro-3-(5-fluoropyrimidin-2-yl)-1,2,3,4,4a,5-hexahydrobenzo[b]pyrazino[1,2-d] [1,4]oxazin-8-yl)-2-oxoacetamide], the MIC in series [1] (Aspergillus fumigatus, CBS101355, 48 h, read-out: AF293: MIC, Aspergillus fumigatus AF293, 35° C., 48 hours, RPMI1640) turned out to be 0.06 µg/mL (≈ 0.11 µM). For `Cc1cc(-c2ccccc2)c(C(=O)C(=O)Nc2ccc3c(c2)OCC2CN(c4ncc(C#N)s4)CCN32)n1C` (stereo not shown) [Example 12], the MIC in series [1] (setting [4]) stood at 0.13 µg/mL (≈ 0.241 µM). The same measure, in the same setting: as for `Cc1cc(-c2ccccc2)c(C(=O)C(=O)Nc2ccc3c(c2)OC[C@H]2CN(c4ncncn4)CCN32)n1C` [Example 28, (R)—N-(3-(1,3,5-triazin-2-yl)-1,2,3,4,4a,5-hexahydrobenzo[b]pyrazino[1,2-d] [1,4]oxazin-8-yl)-2-(1,5-dimethyl-3-phenyl-1H-pyrrol-2-yl)-2-oxoacetamide], the figure is 0.25 µg/mL (≈ 0.491 µM). On to `Cc1cc(-c2ccccc2)c(C(=O)C(=O)Nc2ccc3c(c2)OCC2CN(c4ccnc(Cl)n4)CCN32)n1C` (stereo not shown) [Example 11], for which the minimal inhibitory concentration (MIC) in series [1] (setting [4]) was 0.5 µg/mL (≈ 0.921 µM). Same read-out and setting: as for `Cc1cc(-c2ccccc2)c(C(=O)C(=O)Nc2ccc3c(c2)OC[C@H]2CN(c4ncc(N5CCC5)cn4)CCN32)n1C` [Example 23, (R)—N-(3-(5-(azetidin-1-yl)pyrimidin-2-yl)-1,2,3,4,4a,5-hexahydrobenzo[b]pyrazino[1,2-d] [1,4]oxazin-8-yl)-2-(1,5-dimethyl-3-phenyl-1H-pyrrol-2-yl)-2-oxoacetamide], the figure is 0.13 µg/mL (≈ 0.231 µM).

For orientation: MIC means the lowest concentration that inhibits growth of the organism. In general, CLint scaled refers to the capacity of the preparation to metabolise the compound, expressed as a volume cleared per time. The term half-life denotes the time in which the quantity being followed falls by half.
